Measured values from patent US10281476B2, “Methods to identify modulators of RyR calcium channels” (REGENTS OF THE UNIVERSITY OF MINNESOTA, priority 2013, dated 2019).
Where no end group is shown, it is not given here.

What was measured:
[1] = biological target: T1, RyR2 (Rattus norvegicus, UniProt B0LPN4); assay: Fluorescent CaM binding at the Z-line and at RyR2 (FKBP12.6-CaM FRET) in permeabilized myocytes; design: These fluorescent proteins were added to saponin-permeabilized myocytes with or without pre-equilibration with saturating DPc10 concentration; endogenous in cells; host or cells: saponin-permeabilized rat ventricular myocytes
Method: (§1) These fluorescent proteins were added to saponin-permeabilized myocytes with or without pre-equilibration with saturating DPc10 concentration. […] We also did this with high [CaM] (500 nmol/L) that saturates RyR2 with CaM under control conditions (without DPc10; FIG. 17C). […] To test whether DPc10 and CaM bind at the same or nearby RyR2 sites, we measured FRET between CaM and DPc10.
CaM also binds to RyR2 and reduces RyR2 open probability, and works as a regulatory protein for RyR2 channel gating (Yamaguchi et al., J Biol Chem. 2003; 278:23480-23486; Balshaw et al., J Biol Chem. 2001; 276:20144-20153; Yang et al., Circ Res. 2014; 114:295-306); Yamaguchi et al., J Clin Invest. 2007; 117:1344-1353). We measured the effect of H2O2 on CaM-RyR2 binding affinity using F-CaM as in our previous reports (Yang et al., Circ Res. 2014; 114:295-306; Cornea et al., Proc Natl Acad Sci USA. 2009; 106:6128-6133).
(50 μmol/L) in media containing 50 μmol/L H2O2 (the same concentration used in myocyte pre-incubation experiments). This allowed F-CaM oxidation (and call this F-CaM^Ox). This was then diluted 2500-fold to 20 nmol/L F-CaM^Ox and no H2O2 was present in the myocyte bath.
As a further test of whether RyR2 oxidation alone inhibits subsequent CaM affinity, we removed H2O2 from the myocytes by repeated washing, prior to the addition of F-CaM.
Target sequence in this assay (B0LPN4 whole entry): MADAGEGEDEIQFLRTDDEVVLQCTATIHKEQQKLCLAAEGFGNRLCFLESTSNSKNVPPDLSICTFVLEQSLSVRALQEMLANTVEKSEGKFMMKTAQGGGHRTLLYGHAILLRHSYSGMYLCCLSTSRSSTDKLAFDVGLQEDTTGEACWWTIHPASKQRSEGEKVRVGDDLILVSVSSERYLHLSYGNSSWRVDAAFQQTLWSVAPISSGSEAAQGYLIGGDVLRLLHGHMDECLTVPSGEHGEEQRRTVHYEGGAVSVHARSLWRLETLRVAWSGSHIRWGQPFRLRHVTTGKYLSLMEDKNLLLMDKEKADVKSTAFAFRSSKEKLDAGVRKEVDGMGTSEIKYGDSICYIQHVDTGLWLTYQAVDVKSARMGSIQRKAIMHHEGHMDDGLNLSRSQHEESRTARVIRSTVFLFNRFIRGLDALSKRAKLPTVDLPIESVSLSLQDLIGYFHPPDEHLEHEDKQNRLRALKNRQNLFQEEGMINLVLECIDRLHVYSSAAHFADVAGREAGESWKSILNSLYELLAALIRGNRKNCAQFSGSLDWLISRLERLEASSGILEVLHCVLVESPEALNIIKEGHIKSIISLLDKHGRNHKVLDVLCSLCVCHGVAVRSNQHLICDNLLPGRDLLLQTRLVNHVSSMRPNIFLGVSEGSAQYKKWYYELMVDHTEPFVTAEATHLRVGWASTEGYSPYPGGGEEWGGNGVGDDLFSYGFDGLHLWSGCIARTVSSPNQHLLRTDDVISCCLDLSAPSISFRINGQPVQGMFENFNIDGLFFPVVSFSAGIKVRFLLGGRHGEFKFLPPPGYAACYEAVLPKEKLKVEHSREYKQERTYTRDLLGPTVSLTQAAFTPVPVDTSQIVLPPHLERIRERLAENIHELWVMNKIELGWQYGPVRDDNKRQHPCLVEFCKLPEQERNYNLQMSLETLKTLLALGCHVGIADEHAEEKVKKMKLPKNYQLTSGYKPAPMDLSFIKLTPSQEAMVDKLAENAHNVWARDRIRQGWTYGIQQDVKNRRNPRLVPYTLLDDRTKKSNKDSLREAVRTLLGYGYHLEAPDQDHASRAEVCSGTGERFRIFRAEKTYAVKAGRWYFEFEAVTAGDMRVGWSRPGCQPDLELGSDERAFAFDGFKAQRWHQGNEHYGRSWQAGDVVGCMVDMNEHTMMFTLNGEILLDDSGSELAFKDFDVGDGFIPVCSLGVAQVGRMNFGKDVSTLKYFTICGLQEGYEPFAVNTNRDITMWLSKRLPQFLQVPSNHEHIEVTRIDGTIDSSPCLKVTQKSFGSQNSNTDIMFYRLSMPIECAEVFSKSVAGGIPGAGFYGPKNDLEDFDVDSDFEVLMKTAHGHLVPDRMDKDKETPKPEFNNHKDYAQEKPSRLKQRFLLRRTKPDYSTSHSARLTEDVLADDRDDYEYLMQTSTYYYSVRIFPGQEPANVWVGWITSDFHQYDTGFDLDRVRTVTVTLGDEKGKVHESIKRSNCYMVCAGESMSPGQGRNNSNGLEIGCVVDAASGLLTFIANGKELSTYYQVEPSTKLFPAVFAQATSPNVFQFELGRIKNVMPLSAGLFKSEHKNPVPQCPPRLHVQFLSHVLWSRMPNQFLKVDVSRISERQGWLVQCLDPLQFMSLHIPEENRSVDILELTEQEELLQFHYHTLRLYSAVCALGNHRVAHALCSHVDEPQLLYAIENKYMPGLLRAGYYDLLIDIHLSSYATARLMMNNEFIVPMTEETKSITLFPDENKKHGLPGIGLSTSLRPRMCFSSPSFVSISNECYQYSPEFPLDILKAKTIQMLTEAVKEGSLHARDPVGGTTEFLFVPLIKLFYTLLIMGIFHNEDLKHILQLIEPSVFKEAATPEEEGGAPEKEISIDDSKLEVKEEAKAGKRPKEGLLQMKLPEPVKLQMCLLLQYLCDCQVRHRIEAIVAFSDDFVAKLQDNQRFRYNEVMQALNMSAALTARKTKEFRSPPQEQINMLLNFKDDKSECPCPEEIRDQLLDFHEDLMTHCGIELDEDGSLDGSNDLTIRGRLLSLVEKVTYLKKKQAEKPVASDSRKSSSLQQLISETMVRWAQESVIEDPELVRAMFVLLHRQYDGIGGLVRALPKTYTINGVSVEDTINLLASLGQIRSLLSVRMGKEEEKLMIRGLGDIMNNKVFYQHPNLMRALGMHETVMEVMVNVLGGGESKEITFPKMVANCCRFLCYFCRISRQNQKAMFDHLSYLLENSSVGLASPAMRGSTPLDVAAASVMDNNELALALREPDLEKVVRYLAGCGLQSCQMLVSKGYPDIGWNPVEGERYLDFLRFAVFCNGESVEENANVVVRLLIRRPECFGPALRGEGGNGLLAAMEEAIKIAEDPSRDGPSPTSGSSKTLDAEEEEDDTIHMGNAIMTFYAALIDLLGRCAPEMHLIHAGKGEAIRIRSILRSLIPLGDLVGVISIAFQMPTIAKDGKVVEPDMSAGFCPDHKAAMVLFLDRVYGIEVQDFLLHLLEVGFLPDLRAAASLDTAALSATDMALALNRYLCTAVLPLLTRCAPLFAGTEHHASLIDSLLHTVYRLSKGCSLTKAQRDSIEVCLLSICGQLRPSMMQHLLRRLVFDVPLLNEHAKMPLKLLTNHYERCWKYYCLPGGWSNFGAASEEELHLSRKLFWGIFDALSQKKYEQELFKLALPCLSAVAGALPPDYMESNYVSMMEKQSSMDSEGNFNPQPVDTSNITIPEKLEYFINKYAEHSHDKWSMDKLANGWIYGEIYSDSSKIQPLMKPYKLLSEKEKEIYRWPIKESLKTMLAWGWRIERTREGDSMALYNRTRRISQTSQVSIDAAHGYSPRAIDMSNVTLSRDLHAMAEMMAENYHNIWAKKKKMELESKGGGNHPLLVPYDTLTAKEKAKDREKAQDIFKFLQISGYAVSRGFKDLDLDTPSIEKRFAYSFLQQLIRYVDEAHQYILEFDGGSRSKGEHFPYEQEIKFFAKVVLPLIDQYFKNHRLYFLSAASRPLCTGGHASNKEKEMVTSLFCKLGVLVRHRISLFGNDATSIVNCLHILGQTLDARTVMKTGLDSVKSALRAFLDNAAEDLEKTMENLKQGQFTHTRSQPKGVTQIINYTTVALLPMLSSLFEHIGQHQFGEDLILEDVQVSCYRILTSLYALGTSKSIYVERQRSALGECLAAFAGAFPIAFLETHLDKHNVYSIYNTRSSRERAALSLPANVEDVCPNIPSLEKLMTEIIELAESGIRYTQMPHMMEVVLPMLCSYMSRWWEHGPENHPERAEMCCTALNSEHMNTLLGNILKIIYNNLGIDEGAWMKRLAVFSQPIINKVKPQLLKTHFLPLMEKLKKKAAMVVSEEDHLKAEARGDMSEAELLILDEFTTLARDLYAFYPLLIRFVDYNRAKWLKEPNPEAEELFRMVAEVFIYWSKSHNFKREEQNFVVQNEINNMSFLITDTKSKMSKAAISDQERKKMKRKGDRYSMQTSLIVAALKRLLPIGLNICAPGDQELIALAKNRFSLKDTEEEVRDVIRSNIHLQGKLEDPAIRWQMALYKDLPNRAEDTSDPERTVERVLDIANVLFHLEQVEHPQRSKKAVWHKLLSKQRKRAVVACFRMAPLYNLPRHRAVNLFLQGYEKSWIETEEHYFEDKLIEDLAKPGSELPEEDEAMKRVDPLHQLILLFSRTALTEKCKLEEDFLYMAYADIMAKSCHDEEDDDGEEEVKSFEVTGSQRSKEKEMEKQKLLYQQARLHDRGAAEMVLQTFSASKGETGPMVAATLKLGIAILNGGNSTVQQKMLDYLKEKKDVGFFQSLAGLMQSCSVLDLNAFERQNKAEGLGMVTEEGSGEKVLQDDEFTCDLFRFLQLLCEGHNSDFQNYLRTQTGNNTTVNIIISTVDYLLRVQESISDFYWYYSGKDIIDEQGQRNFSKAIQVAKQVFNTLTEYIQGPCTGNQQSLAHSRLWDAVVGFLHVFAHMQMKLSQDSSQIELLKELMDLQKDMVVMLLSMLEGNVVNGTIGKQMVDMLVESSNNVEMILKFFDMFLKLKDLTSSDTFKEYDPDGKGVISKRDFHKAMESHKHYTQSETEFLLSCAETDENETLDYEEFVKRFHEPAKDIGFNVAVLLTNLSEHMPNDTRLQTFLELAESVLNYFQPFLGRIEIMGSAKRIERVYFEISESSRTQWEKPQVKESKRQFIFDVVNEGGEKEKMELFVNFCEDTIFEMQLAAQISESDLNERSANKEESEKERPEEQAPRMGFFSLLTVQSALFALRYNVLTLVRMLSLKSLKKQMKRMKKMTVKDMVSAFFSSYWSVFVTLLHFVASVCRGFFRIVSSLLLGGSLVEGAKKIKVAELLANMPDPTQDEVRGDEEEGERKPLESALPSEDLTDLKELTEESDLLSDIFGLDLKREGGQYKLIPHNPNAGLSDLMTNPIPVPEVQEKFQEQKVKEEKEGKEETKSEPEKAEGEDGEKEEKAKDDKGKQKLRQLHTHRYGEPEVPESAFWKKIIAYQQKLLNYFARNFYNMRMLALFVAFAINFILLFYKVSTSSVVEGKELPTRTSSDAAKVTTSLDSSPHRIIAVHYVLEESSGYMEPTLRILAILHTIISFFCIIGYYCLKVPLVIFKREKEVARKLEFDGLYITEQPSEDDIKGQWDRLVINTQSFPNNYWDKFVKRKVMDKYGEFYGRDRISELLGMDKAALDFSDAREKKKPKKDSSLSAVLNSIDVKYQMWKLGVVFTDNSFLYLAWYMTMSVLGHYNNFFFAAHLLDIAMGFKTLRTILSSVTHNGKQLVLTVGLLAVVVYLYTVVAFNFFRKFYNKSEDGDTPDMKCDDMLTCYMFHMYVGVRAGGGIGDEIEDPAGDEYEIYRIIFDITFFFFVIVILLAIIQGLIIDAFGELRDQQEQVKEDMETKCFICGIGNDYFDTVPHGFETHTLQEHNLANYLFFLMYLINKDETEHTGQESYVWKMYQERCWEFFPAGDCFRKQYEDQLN

[2] = tested on: rat intact cardiomyocytes; assay: Ca2+ transients in intact cardiomyocytes; assay type: cell-based; settings: H2O2 50 μmol/L, dantrolene 1 μmol/L, 1 Hz
Method: (§2) Intact cardiomyocytes were loaded with Fluo-4 AM (5 μmol/L, Molecular Probes) for 15 min in NT solution (in mM): NaCl 140, KCl 4, MgCl2 1, CaCl2 2, glucose 10, HEPES 5, pH 7.4. Fluo-4 AM was excited at 488 nm and emission was recorded using a 500-530 nm bandpass filter. Ca^2+sparks were recorded after field stimulation at 1 Hz, and caffeine (10mmol/L) was rapidly perfused for assessing the SR Ca^2+content. Both Ca^2+sparks and SR Ca^2+content were recorded by using a laser scanning confocal microscope (RADIANCE2000™ MP, Bio-Rad, UK). Data were analyzed using SparkMaster, an automated analysis program that allows rapid and reliable spark analysis (Picht et al., J. Am J Physiol Cell Physiol. 2007;293:C1073-C1081). Spontaneous Ca^2+waves were recorded using a BZ9000 fluorescence digital microscope (Keyence, Japan), after 10 sec from field electric stimulation at 1,2,3,4 and 5 Hz, as described previously (Fukuda et al., Biochem Biophys Res Commun. 2014;448:1-7).
Oxidation induced by hydrogen peroxide (H2O2) is expected to activate SR Ca^2+ leak through RyR2 at diastolic [Ca]i (Wagner et al., Circ Res. 2011; 108:555-65; Yan et al., Cardiovasc Res. 2008; 77:432-41). We used line-scan images to measure the effects of 50 μM/L H2O2 on Ca^2+ spark frequency (CaSpF) and SR Ca^2+ content (evaluated via rapid caffeine application) in intact cardiomyocytes after 1 Hz electric field stimulation (FIG. 25). […] Thus H2O2 may enhance diastolic RyR2 channel opening. […] So CaSpF normalized to SR Ca^2+ content, was significant increase by H2O2 treatment of myocytes (FIG. 25C).

[3] = tested on: intact cardiac myocytes; assay: Spontaneous Ca2+ waves (SCW) in intact cardiac myocytes; assay type: cell-based, rat
Method: as §2

[4] = biological target: T1, RyR2; assay: Fluorescent FKBP12.6 binding at the Z-line of permeabilized myocytes; design: These fluorescent proteins were added to saponin-permeabilized myocytes with or without pre-equilibration with saturating DPc10 concentration; endogenous in cells; host or cells: saponin-permeabilized rat ventricular myocytes
Method: as §1
Target sequence in this assay (B0LPN4 whole entry): as above
Target sequence in this assay (P68106 with tags, fused parts or gaps T15C/C23A/C77I partner): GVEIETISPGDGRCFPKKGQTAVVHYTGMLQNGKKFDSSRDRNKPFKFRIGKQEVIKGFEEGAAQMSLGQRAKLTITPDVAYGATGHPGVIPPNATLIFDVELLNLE
FKBP12.6 can bind to and stabilize RyR2 channel gating, but details are controversial (Bers et al., Circ Res. 2012; 110:796-799). We measured the effect of H2O2 on FKBP12.6-RyR2 binding affinity in saponin-permeabilized myocytes using F-FKBP (Yang et al., Circ Res. 2014; 114:295-306; Cornea et al., Proc Natl Acad Sci USA. 2009; 106:6128-6133; Guo et al., Circ Res. 2010; 106:1743-1752; Guo et al., Biophys J. 2011; 101:2170-2177; Cornea et al., J Biol Chem. 2010; 285:19219-19226). […] We used 1 nmol/L F-FKBP (the its Kd) (Guo et al., Circ Res. 2010; 106:1743-1752), because at half-saturation it would be very sensitive to either an increase or decrease in RyR2 binding.

| Compound | reduction of F-CaM binding, myocytes pre-treated with H2O2 ([1]; 50 μmol/L H2O2 not removed, F-CaM 20 nmol/L) [%] | reduction of F-CaM binding at the Z-line ([1]; 50 μmol/L H2O2 removed by washing before F-CaM) [%] | effect on F-CaM binding at the Z-line ([1]; 10 and 50 μmol/L H2O2 pretreatment, F-CaM 20 nmol/L) | reduction of RyR2 A-CaM binding ([1]; subsaturating A-CaM, 50 μM H2O2) [%] | Tau [Ca]i decline [2] [s] | Δ [Ca]i twitch (ΔF/F0) [2] | occurrence of SCW vs. control ([3]; pacing rate increased from 1 to 5 Hz) | effect on F-FKBP binding to the RyR2 ([4]; 1 nmol/L F-FKBP, H2O2 50 μmol/L, with or without AIP or dantrolene) | restoration of F-CaM binding in H2O2-treated myocytes ([1]; dantrolene 1 μmol/L, AIP 1 μmol/L) | effect on CaM-RyR2 affinity under control conditions ([1]; no H2O2) | effect on H2O2-induced increase in frequency of SCW ([3]; dantrolene added before H2O2) | effect on CaM binding at the RyR2 and at the Z-line ([1]; 20 nmol/L CaM, DPc10 pretreatment) | effect on CaM binding at the RyR2 (FRET) and at the Z-lines (total) ([1]; 500 nmol/L AF568-34-CaM, DPc10-treated myocytes) | effect on FKBP12.6 binding to RyR2 ([4]; AF488-FKBP12.6 1 nmol/L, preincubation with 5 μmol/L DPc10) |
| --- | --- | --- | --- | --- | --- | --- | --- | --- | --- | --- | --- | --- | --- | --- |
| OO [H2O2, hydrogen peroxide] | 50 | 32 | reduced | ~50 | 0.32 ± 0.01 | 2.56 ± 0.19 ΔF/F0 | significantly increased | failed to alter | – | – | – | – | – | – |
| O=C1CN(/N=C/c2ccc(-c3ccc([N+](=O)[O-])cc3)o2)C(O)=N1 [dantrolene] | – | – | – | – | 0.31 ± 0.01 | 2.35 ± 0.16 ΔF/F0 | – | – | partially restore | Neither AIP nor dantrolene alter | suppressed | – | – | – |
| GFCPDHKAAMVLFLDRVYGIEVQDFLLHLLEVGFLP [DPc10] | – | – | – | – | – | – | – | – | – | – | – | significantly reduced | reduced | does not influence |
